SMILES strings stand for the structures.

T1 sequence (P50406 whole entry): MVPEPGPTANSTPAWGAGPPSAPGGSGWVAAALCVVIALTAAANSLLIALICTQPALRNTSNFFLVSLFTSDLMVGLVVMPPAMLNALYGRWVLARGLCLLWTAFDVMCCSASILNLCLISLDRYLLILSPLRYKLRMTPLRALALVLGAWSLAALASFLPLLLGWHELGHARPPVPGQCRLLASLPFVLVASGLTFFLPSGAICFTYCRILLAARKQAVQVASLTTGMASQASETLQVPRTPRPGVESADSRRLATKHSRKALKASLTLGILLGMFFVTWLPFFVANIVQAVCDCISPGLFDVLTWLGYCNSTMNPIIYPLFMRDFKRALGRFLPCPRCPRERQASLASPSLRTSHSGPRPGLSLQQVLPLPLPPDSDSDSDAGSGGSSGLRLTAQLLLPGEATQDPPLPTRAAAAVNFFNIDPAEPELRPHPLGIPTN

This assay concerns the target T1, 5HT6-human recombinant receptor (Homo sapiens, UniProt P50406).
T1 construct: purchased Receptor Biology; host or cells: HEK-293 cell membranes
The assay is described as follows: Binding to serotonin receptor 5-HT6 ([3H]-LSD radioligand). The note with it: membranes of HEK-293 cells expressing the receptor; [3H]-LSD 2.7 nM; 60 min at 37° C. The method, then:
Cell membranes of HEK-293 cells expressing the 5HT6-human recombinant receptor were supplied by Receptor Biology. In said membranes the receptor concentration is 2.18 pmol/mg protein and the protein concentration is 9.17 mg/ml. The experimental protocol follows the method of B. L. Roth et al. [B. L. Roth, S. C. Craigo, M. S. Choudhary, A. Uluer, F. J. Monsma, Y. Shen, H. Y. Meltzer, D. R. Sibley: Binding of Typical and Atypical Antipsychotic Agents to 5-Hydroxytryptamine-6 and Hydroxytryptamine-7 Receptors. The Journal of Pharmacology and Experimental Therapeutics, 1994, 268, 1403] with the following slight changes. The respective part of the literature description is hereby incorporated by reference and forms part of the disclosure.
The commercial membrane is diluted (1:40 dilution) with the binding buffer: 50 mM Tris-HCl, 10 mM MgCl2, 0.5 mM EDTA (pH 7.4). The radioligand used is [^3H]-LSD at a concentration of 2.7 nM with a final volume of 200 μl. Incubation is initiated by adding 100 μl of membrane suspension, (≈22.9 μg membrane protein), and is prolonged for 60 minutes at a temperature of 37° C. The incubation is ended by fast filtration in a Brandel Cell Harvester through fiber glass filters made by Schleicher & Schuell GF 3362 pretreated with a solution of polyethylenimine at 0.5%. The filters are washed three times with three milliliters of buffer Tris-HCl 50 mM pH 7.4. The filters are transferred to flasks and 5 ml of Ecoscint H liquid scintillation cocktail are added to each flask. The flasks are allowed to reach equilibrium for several hours before counting with a Wallac Winspectral 1414 scintillation counter. Non-specific binding is determined in the presence of 100 μM of serotonin. Tests were made in triplicate. The inhibition constants (Ki, nM) were calculated by non-linear regression analysis using the program EBDA/LIGAND described in Munson and Rodbard, Analytical Biochemistry, 1980, 107, 220, the respective part of which is hereby incorporated by reference and forms part of the disclosure.
The binding of the substituted indazolyl sulfonamide or 2,3-dihydro-indolyl sulfonamide compounds to the 5-HT6 receptor was determined as described above.
A word on the Ki: it is a measure of affinity in units of concentration, obtained from inhibition or displacement. For `CN(C)CCn1ncc2ccc(NS(=O)(=O)c3ccc4ccccc4c3)cc21` [Example 1, N-(1-(2-(dimethylamino)ethyl)-1H-indazol-6-yl)napthalene-2-sulfonamide], the inhibitory constant (Ki) came out at 0.0726 µM.

In the case of `Cc1c(S(=O)(=O)Nc2ccc3cnn(CCN(C)C)c3c2)sc2ccc(Cl)cc12` [Example 2, 5-chloro-N-(1-(2-(dimethylamino)ethyl)-1H-indazol-6-yl)-3-methylbenzo[b]thiophene-2-sulfonamide], the Ki is 0.0164 µM.

With `Cc1c(S(=O)(=O)Nc2ccc3[nH]nc(C4CCN(C)CC4)c3c2)sc2ccc(Cl)cc12` [Example 4, 5-chloro-3-methyl-benzo[b]thiophene-2-sulfonic acid [3-(1-methyl-piperidin-4-yl)-1H-indazol-5-yl]-amide], the Ki was determined as 0.121 µM.

On to `CN(C)CCN1CCc2ccc(NS(=O)(=O)c3c(Cl)nc4sccn34)cc21` [Example 9], for which the Ki came out at 0.0158 µM.

(Values after patent US20090005417A1, “Substituted Indazolyl Sulfonamide and 2,3-Dihydro-Indolyl Sulfonamide Compounds, their Preparation and Use in Medicaments” (LABORATORIOS DEL DR. ESTEVE S.A., priority 2004, published 2009).)
